Measured values as given in patent US20230000806A1, “COMPOSITIONS AND METHODS FOR GLUTATHIONE ENHANCEMENT FOR USE IN BRAIN HEALTH” (SOCIETE DES PRODUITS NESTLE S.A., priority 2019, published 2023).

Experiments:
[1] = tested on: rats; experiment: Operant conditioning, progressive ratio reinforcement schedule (motivated behaviour); assay type: in vivo, rat; conditions: vs vehicle
Experimental: Adult male outbred rats were trained for nose poke for saccharine food pellets for one week on an FR1 training schedule as described in the methods below. Rats were then treated with either normal drinking water (vehicle) or N-acetyl cysteine (NAC) in the drinking water (FIG. 22A) at a dose that was previously shown to enhance GSH levels (FIG. 22B). Following 2 weeks of treatment, rats were given an additional 2 training sessions, followed 24 h later by a progressive ratio session designed to test their motivated behaviour. During this progressive ratio session, rats have to increasingly work harder to earn the saccharine pellet, as described in the methods below. […] The breakpoint is defined as the last step in the session where the animals received a reward and is a direct correlate of their willingness to exert an effort. […] Animals: Adult male Wistar rats (Charles Rivers, Saint-German-Nuelle, France) weighing 250-275 gr at the beginning of the experiment were used for all experiments. Rats were individually housed in cages in housing colonies on a 12:12 h reversed light:dark cycle with lights on at 20:00, and lights-off at 8:00. Food and water were available ad libitum. Following a week of acclimatization to the animal facilities, rats were handled for 2 min per day for three days prior to the start of the experiments, in order to habituate to the experimenters. Operant conditioning: Ten days after introduction to the reversed day-night cycle, rats started training in a fixed ratio 1 reinforcement schedule (FR1). Operant chambers (Coulbourn Instruments, Holliston, Mass., US), placed in sound attenuating cubicles, were equipped with a grid, underneath which a tray with standard bedding material was placed for collection of feces and urine after each training session. Each chamber had one food tray and two ports placed on either side of the tray. A cue light was placed in each port and the food tray, whereas a house light was placed above the food tray. The right-hand side port of each chamber was designated as “active”, meaning that spontaneous nosepoking would result in the drop of one 45 mg food pellet (Bio-Serv, Flemington, N.J., USA) to the food tray. Upon nosepoking in the active port, the cue and house lights were turned off, while the tray light turned on and the pellet dropped to the food tray. […] Subsequently, the chamber returned to its initial condition. Each training session lasted maximally two hours or until a rat acquired 100 pellets. Each rat received six training sessions (one training on each day for five consecutive days, followed by two days without training and one training session on day 8). Only rats that finished at least two training sessions acquiring 100 pellets before the two-hour mark were used for progressive ratio experiments. Subsequently, rats were treated with N-acetyl cysteine in the drinking water (500 mg/L) or continued having access to normal water (control). After two weeks of treatment, rats were exposed to another two days of FR1 training to ensure their training performance was similar to pre-treatment levels. To test motivated behaviour, rats were exposed to a progressive ratio reinforcement schedule (progressive ratio test). Progressive ratio sessions were identical to training sessions except that the operant requirement in each trial (T) was the integer (rounded down) of the function 1.4^(T-1) starting at one nosepoke for the first three trials and increasing in subsequent trials for rats (Wanat et al. Nat Neurosci. 2013; 16(4):383-5). Progressive ratio sessions lasted two hours. Correct nosepokes (i.e. nosepokes in the active port and outside the timeout period, thus resulting in food delivery) were calculated to evaluate behavioural performance, as well as the number of acquired rewards and the last completed ratio (breakpoint). Investigation of the Nucleus accumbens was undertaken in cannulated rats which were then moved to a reverse light-dark cycle to recover for 10 days. […]

[2] = tested on: rats; experiment: GSH levels in the nucleus accumbens of treated rats; assay type: in vivo, rat
[3] = tested on: rat primary astrocytes; experiment: Intracellular GSH by GSH-Glo Assay in rat primary astrocyte culture; assay type: cell-based; conditions: standard culture conditions (no cysteine depletion); 48 hrs after treatment; normalized to total proteins
Experimental: Intracellular GSH was measured in rat primary astrocytes in culture by using a GSH-Glo™ Assay, which is a luminescent-based assay for the detection and quantification of reduced and/or total glutathione levels in cells. The assay converted luciferin derivatives into luciferin in the presence of GSH. The reaction was catalyzed by a glutathione S-transferase (GST) enzyme supplied in the kit. The luciferin formed was detected in a coupled reaction using Ultra-Glo™ Recombinant Luciferase that generated a glow type luminescence that was proportional to the amount of glutathione present in cells. A standard curve was used for each biological replicate and at least 4 technical replicates were done for each condition and for each biological replicate. 10% of lysate of each technical and biological replicate was used to measure protein amount by BCA and used to normalize the GSH intracellular content to total proteins. Buthionine sulfoximine (BSO) a specific inhibitor of γ-glutamylcysteine ligase (GCL) was added at 15 mM at the time of the start of the treatment to confirm the specificity of the readout. Measurements were performed 48 hrs after treatment. Results were compared to the control condition for each biological replicate and for each condition.

[4] = tested on: Nrf2; experiment: Measurement of nuclear Nrf2 in astrocytes (immunostaining); assay type: cell-based, rat; conditions: 48 hrs after treatment; for increase Nrf2 levels in the cell nucleus: significant; for Nrf2 activation: vs control (water or 0.1% DSMO)
Experimental: Nuclear Nrf2 was measured in rat primary astrocytes in culture. The cells were stained with Nrf2 (Abcam ab89443 1:500), Tubulin (Abcam ab 89984 1:1000) antibodies and DAPI as nuclear counterstaining. We used the tubulin channel and the DAPI to segment the image in cytoplasmic and nuclear areas and measure the Nrf2 signal in these areas. We measure the average intensity in the nucleus and normalized to the average nuclear area. Cell count using DAPI was performed to establish toxicity or cell detachment for each condition. Images were taken to cover all the area of the well where cells were seeded and at least 6 technical replicates were done for each condition and for each biological replicate. Measurements were performed 48 hrs after treatment with each of the compounds: N-Acetylcysteine dissolved in water, while Puerarine, Sulfurophane, Taurine at different doses were dissolve in a 0.1% DSMO final solution. They were compared to the control in each condition which was water or 0.1% DSMO alone. Results were compared to the control condition for each biological replicate and for each condition. Statistics were done using Kruskal-Wallis Multiple Comparison test.

[5] = tested on: rat primary astrocytes; experiment: Cytoplasmic reactive oxygen species (ROS) measurement with CellROX Deep Red; assay type: cell-based; conditions: 48 hrs after treatment; oxidative stress triggered by 250 μM tBHP for 1 hour; vs control
Experimental: Cytoplasmic ROS was measured in rat primary astrocytes in culture by CellROX® Deep Red reagent, a novel cell-permeant dye with absorption/emission maxima of ˜644/665 nm. CellROX® Deep Red reagent while in a reduced state is non-fluorescent and becomes fluorescent upon oxidation by reactive oxygen species with emission maxima ˜665. CellMask™-green stains plasma membrane and DAPI stains nuclei. We used the green channel and the dapi to segment the image in cytoplasmic and nuclear areas and measure the CellROX deep red signal in these areas. As CellROX® Deep Red is a better read out for cytoplasmic ROS, we measure the average intensity in the cytoplasm and normalized to the average cytoplasmic area. Cell count using DAPI was performed to establish toxicity or cell detachment for each condition. Images were taken to cover all the area of the well where cells were seeded and at least 4 technical replicates were done for each condition and for each biological replicate. Measurements were performed at 48 hrs after treatment at baseline and after oxidative stress where oxidative stress was triggered by 250 μM tBHP for 1 hour. Results were compared to the control condition at baseline for each biological replicate and for each condition.

[6] = tested on: rat primary astrocytes; experiment: Intracellular GSH in astrocytes in medium reduced in cysteine and methionine; assay type: cell-based; conditions: medium depleted of methionine and cystine, supplemented with 15% FBS
Experimental: Intracellular GSH was measured in rat primary astrocytes in culture by using a GSH-Glo™ Assay, which is a luminescent-based assay for the detection and quantification of reduced and/or total glutathione levels in cells. The assay converted luciferin derivatives into luciferin in the presence of GSH. The reaction was catalyzed by a glutathione S-transferase (GST) enzyme supplied in the kit. The luciferin formed was detected in a coupled reaction using Ultra-Glo™ Recombinant Luciferase that generated a glow type luminescence that was proportional to the amount of glutathione present in cells. A standard curve was used for each biological replicate and at least 4 technical replicates were done for each condition and for each biological replicate. 10% of lysate of each technical and biological replicate was used to measure protein amount by BCA and used to normalize the GSH intracellular content to total proteins. […] Measurements were performed 48 hrs after treatment. […] To measure GSH increase after N-acetyl cysteine (Nac) and L-cysteine supplementation, rat primary astrocytes were cultured in medium depleted of methionine (a precursor of cysteine) and cystine but still supplemented with 15% FBS to not have a full depletion but rather a reduction of these amino acids. Experiments were performed only with the same batch of FBS to avoid any difference in amino-acid content amongst batches. […]

[7] = single infusion in the Nucleus Accumbens, 1 μl of 7 μg/μl, 24 hours before
[8] = NAC in the drinking water (500 mg/L), 2 weeks

## CCCCS(=N)(=O)CCC(N)C(=O)O (stereo not drawn) [BSO, Buthionine sulfoximine]
[1]; [7]
  change in breakpoint (PR-schedule): −68%
  change in correct nosepokes (PR-schedule): −60%
  change in rewards (PR-schedule): −22%
[2]; single infusion in the Nucleus Accumbens, 1 μl of 7 μg/μl, 24 hours before the test, vs vehicle
  reduction of GSH levels in the Nucleus Accumbens: 29%

## C[N+](C)(C)C(Cc1c[nH]c(S)n1)C(=O)O.[OH-] (stereo not drawn) [Ergothioneine, 1-carboxy-2-[2-mercaptoimidazole-4-(or 5)-yl]ethyl]-trimethyl-ammonium hydroxide]
[3]
  intracellular glutathione: increases intracellular glutathione
[4]; 0.5 mM
  increase Nrf2 levels in the cell nucleus: ≤ 18%
[5]
  reactive oxygen species after oxidative stress: decreases reactive oxygen species

## N[C@@H](CS)C(=O)O [L-cysteine]
[6]
  GSH intracellular level: significantly increase the GSH intracellular level

## CCNC(=O)CC[C@H](N)C(=O)O [L-theanine]
[3]
  intracellular glutathione: increases intracellular glutathione
[5]
  reactive oxygen species after oxidative stress: decreases reactive oxygen species

## CC(=O)N[C@@H](CS)C(=O)O [N-Acetylcysteine, reference compound]
[3]
  intracellular glutathione: does not increase intracellular glutathione
[1]; [8]
  breakpoint level in progressive ratio session: significantly higher breakpoint level
  nose pokes in progressive ratio session: significantly more nose pokes
  number of rewards in progressive ratio session: greater number of rewards
[4]
  Nrf2 activation: does not activate Nrf2
[6]
  GSH intracellular level: significantly increase the GSH intracellular level
[5]
  reactive oxygen species after oxidative stress: decreases reactive oxygen species
[2]; NAC in the drinking water (500 mg/L), 2 weeks, vs vehicle treated rats
  GSH in the nucleus accumbens: enhanced GSH in the nucleus accumbens

## O=c1c(-c2ccc(O)cc2)coc2c([C@@H]3O[C@H](CO)[C@@H](O)[C@H](O)[C@H]3O)c(O)ccc12 [Puerarine]
[3]
  intracellular glutathione: increases intracellular glutathione
[4]; highest dose of 10 μm
  increase Nrf2 levels in the cell nucleus: ≤ 20%
[5]
  reactive oxygen species after oxidative stress: decreases reactive oxygen species after oxidative stress in a dose dependent manner

## C[S+]([O-])CCCCN=C=S (stereo not drawn) [Sulfurophane]
[3]
  intracellular glutathione: increases intracellular glutathione
[4]; 2 μM
  increase Nrf2 levels in the cell nucleus: ≤ 20%
[5]
  reactive oxygen species after oxidative stress: decreases reactive oxygen species

## NCCS(=O)(=O)O [Taurine, 2-aminoethanesulfonic acid]
[3]
  intracellular glutathione: increases intracellular glutathione
[4]
  Nrf2 activation: does not activate Nrf2
[5]
  reactive oxygen species after oxidative stress: decreases reactive oxygen species
